Measured values published in the NIST ThermoML archive (doi:10.1021/je049789+).
± gives the expanded uncertainty stated by the source.

Details: Liquid, Closed cell (Static) method

Row | vapor or sublimation pressure (258.15 K) | vapor or sublimation pressure (273.15 K) | vapor or sublimation pressure (293.15 K) | SMILES
1 | 152.9 ± 2.1 kPa | 266.8 ± 2.2 kPa | 509.3 ± 2.7 kPa | COC [dimethyl ether]
2 | 488.1 ± 2.6 kPa | 814 ± 3.3 kPa | 1474.6 ± 4.8 kPa | FCF [difluoromethane]
